This note sets out measurements from EP4711366A1, “PYRIMIDO MACROHETEROCYCLIC COMPOUND AS WEE1-YES DUAL-TARGET INHIBITOR AND USE THEREOF” (Mindrank AI Ltd., priority 2023, dated 2024).

A short description of series [1]: Solid-state stability study of polymorphs. The series is classed as physicochemical. Particulars: for Initial purity (%): HPLC purity before storage.
A short description of series [2]: Equilibrium solubility study of polymorphs in different vehicles. The class given is physicochemical. Particulars: 37±2 °C, suspension ~10 mg/mL; for Equilibrium solubility: 24 h, 1440 min, in mg/mL (unit assumed). On the procedure:
The equilibrium solubility of the crystal forms A, B, C, and D of compound (IE) was tested in water (H2O), fasted state simulated gastric fluid (FaSSGF), fasted state simulated intestinal fluid (FaSSIF), and fed state simulated intestinal fluid (FeSSIF). In the test, the solids were suspended in corresponding buffers to formulate suspensions (~10 mg/mL) and mixed at 37±2 °C. After 24 h, samples of the suspensions were taken. The supernatant was filtered, and the concentration was determined.

In series [3] the test system is Human ovarian cancer OVCAR-3 cells. As to the kind of experiment: In vivo efficacy study against OVCAR-3 tumors (subcutaneous tumor-bearing model). On the set-up: species or system BALB/c nude mice. Particulars: 80mg/kg, PO, QD×28. As for the experimental part: Human ovarian cancer OVCAR-3 cells were subcultured and expanded in an RPMI-1640 culture medium containing 20% FBS and 0.01 mg/mL bovine insulin. BALB/c nude mice aged 6-8 weeks were taken and each subcutaneously injected with 5 × 10^6 cells to establish a tumor-bearing model. The tumor volume was monitored, and when the tumor volume reached about 150 mm^3, the animals were randomized into 5 groups according to body weight and tumor volume. The animals were given, by oral gavage, the vehicle or compounds to be tested (ZN-c3 and IE) once daily for a total of 28 days. During the period of administration, the tumor volume and the animal body weight were measured twice a week, and the animals' states were observed daily. At the endpoint, the animals were euthanized with carbon dioxide, and the subcutaneous tumors were isolated and weighed.
The data calculation formulae are shown below: The tumor volume (TV) was calculated using the formula 1/2×axb^2, where a and b represent the length and width measurements of the tumor, respectively.
The tumor growth inhibition rate (%TGITV) was calculated using the formula (1 - TVT/TVC) × 100%, where TVc represents the average tumor volume of the negative control group, and TVT represents the average tumor volume of the treatment group.
The relative tumor volume (RTV) was calculated using the formula Vt/V0, where V0 represents the tumor volume at the time of grouping, and Vt represents the tumor volume at each measurement.

The mark [4] stands for this setting: 25 °C/60% RH, 7 days (long-term).
[5] abbreviates: 40 °C/75% RH, 7 days (accelerated).
Setting [6] is: 60 °C, 7 days (high-temperature, RH < 30%).
[7] abbreviates: long-term conditions for 7 days.
The mark [8] stands for this setting: high-temperature and accelerated conditions for 7 days.

Converted amounts (≈) assume the structure as drawn.

With `Cc1cc(Nc2ncc3c(=O)n4n(c3n2)-c2cccc(n2)[C@](C)(O)CC/C=C\C4)ccc1OC1CCN(C)CC1` [Crystal form A of compound IE], the Crystal form result in series [1] (setting [4]) was “Crystal form A”; in series [1] (setting [5]), “Crystal form E”; in series [1] (setting [6]), “Crystal forms A+E”. For the same compound, the “Purity (%)” value in series [1] (setting [4]) amounted to 98.01%; in series [1] (setting [5]) it was 98.11%; in series [1] (setting [6]), 98.06%. Moreover, in series [1], the “Initial purity (%)” value turned out to be 98.08%. The “solid-state stability (in words)” value in series [1] (setting [7]) is recorded as “remained stable”. Also, the Equilibrium solubility is given as above 10 in series [2] (FaSSGF), 1.73 in series [2] (FaSSIF) and 0.27 in series [2] (FeSSIF).

As for `Cc1cc(Nc2ncc3c(=O)n4n(c3n2)-c2cccc(n2)[C@](C)(O)CC/C=C\C4)ccc1OC1CCN(C)CC1` [Crystal form B of compound IE], the Crystal form result in series [1] (setting [4]), in series [1] (setting [5]) and in series [1] (setting [6]) was “Crystal form B” each time. The results for the “Purity (%)” value in series [1] (setting [4]), in series [1] (setting [5]) and in series [1] (setting [6]) were 98.01%, 98.25% and 98.24%, respectively. Also, in series [1], the “Initial purity (%)” value turned out to be 97.97%. Besides, the “solid-state stability (in words)” value in series [1] (setting [8]) and in series [1] (setting [7]) was “remained stable” each time. The Equilibrium solubility in series [2] (FaSSGF) is given as above 10; in series [2] (FaSSIF), 1.23; in series [2] (FeSSIF), 2.07.

On to `C=CCn1c(=O)c2cnc(Nc3ccc(N4CCN(C)CC4)cc3)nc2n1-c1cccc(C(C)(C)O)n1` [AZD-1775, reference compound], for which, in series [3], the “Relative tumor inhibition (%) Day 28” value was 58.28% and the “Relative tumor volume Day 28” value is 2.18.

Consider `Cc1cc(Nc2ncc3c(=O)n4n(c3n2)-c2cccc(n2)[C@](C)(O)CC/C=C\C4)ccc1OC1CCN(C)CC1` [Crystal form D of compound IE], for which the Crystal form entry in series [1] (setting [4]), in series [1] (setting [5]) and in series [1] (setting [6]) was “Crystal form D” each time. Besides, the “Purity (%)” value in series [1] (setting [4]) is recorded as 97.82%; in series [1] (setting [5]), 97.87%; in series [1] (setting [6]) it was 97.74%. Also, in series [1], the “Initial purity (%)” value is 97.79%. Also, the “solid-state stability (in words)” value in series [1] (setting [8]) and in series [1] (setting [7]) was “remained stable” throughout. Also, the Equilibrium solubility worked out at 0.81 in series [2] (FaSSIF) and 0.11 in series [2] (FeSSIF). Further, the thermodynamic solubility (usually the concentration in solution at equilibrium with solid) at 24 h in series [2] (fassgf) stood at 8440 µg/mL (≈ 15.6 mM).

As for `Cc1cc(Nc2ncc3c(=O)n4n(c3n2)-c2cccc(n2)[C@](C)(O)CC/C=C\C4)ccc1OC1CCN(C)CC1` [Crystal form C of compound IE], the Crystal form entry in series [1] (setting [4]), in series [1] (setting [5]) and in series [1] (setting [6]) was “Crystal form C” throughout. The “Purity (%)” value in series [1] (setting [4]) is on record as 98.75%; in series [1] (setting [5]), 98.73%; in series [1] (setting [6]) it was 98.72%. In addition, the “Initial purity (%)” value in series [1] is 98.74%. For the same compound, the “solid-state stability (in words)” value in series [1] (setting [8]) and in series [1] (setting [7]) was “remained stable” throughout. Moreover, the results for the Equilibrium solubility in series [2] (FaSSGF), in series [2] (FaSSIF) and in series [2] (FeSSIF) were above 10, 0.710 and 1.299, respectively.
